Assay results reported in the OligoGym collection.
Bases are written 5' to 3'; sugars and linkages follow in the same order, as letters with counts (s phosphorothioate, o phosphodiester; PS: all linkages phosphorothioate). C may stand for cytosine or 5-methylcytosine; the collection does not tell. l = locked nucleic acid (LNA); d = 2'-deoxy (DNA)

Molecular target: HIF1A
Experiment: HeLa, 100 nM transfected, 24 h, mean of 3
Conditions: ASO

Sequence	caspase activation (% of PBS control)
GTTACTGCCTTCTTAC (sugars ldddlddddddldddl, PS)	137
TTACTGCCTTCTT (sugars l2 d1 l1 d7 l2, PS)	202
GTTACTGCCTTCTTAC (sugars llddlddddddllldl, PS)	373
TTACTGCCTTCTT (sugars ldldddddddldl, PS)	154
GTTACTGCCTTCTTAC (sugars l1 d2 l1 d7 l5, PS)	268
GTTACTGCCTTCTTAC (sugars l2 d1 l2 d9 l2, PS)	161
TGGCAAGCATCCTGTA (sugars l2 d12 l2, PS)	389
TGGCAAGCATCCTGTA (sugars ldlldddddddllddl, PS)	360
GTTACTGCCTTCTTAC (sugars lddldddddddldldl, PS)	135
TGGCAAGCATCCTGTA (sugars l1 d11 l1 d1 l2, PS)	315
GCAAGCATCCTGT (sugars l1 d9 l1 d1 l1, PS)	124
TTACTGCCTTCTT (sugars l1 d2 l1 d7 l2, PS)	126
TGGCAAGCATCCTGTA (sugars l4 d9 l1 d1 l1, PS)	425
TGGCAAGCATCCTGTA (sugars llddlddddddldlll, PS)	425
TGGCAAGCATCCTGTA (sugars llddlddddddlddll, PS)	455
TACTGCCTTCTTA (sugars l4 d6 l1 d1 l1, PS)	508
TGGCAAGCATCCTGTA (sugars l1 d2 l1 d11 l1, PS)	178
GTTACTGCCTTCTTAC (sugars l1 d3 l1 d6 l5, PS)	359
TGGCAAGCATCCTGTA (sugars l2 d9 l1 d1 l3, PS)	369
TGGCAAGCATCCTGTA (sugars ldlllddddddlddll, PS)	410

Sequence	caspase activation (% of PBS control)
TACTGCCTTCTTA (sugars l1 d1 l1 d7 l3, PS)	494
GTTACTGCCTTCTTAC (sugars ldddldddddddlddl, PS)	142
CAAGCATCCTGTA (sugars l1 d10 l2, PS)	111
TGGCAAGCATCCTGTA (sugars ldldlddddddldddl, PS)	179
TGGCAAGCATCCTGTA (sugars l2 d1 l2 d7 l4, PS)	394
ACTGCCTTCTTAC (sugars l3 d8 l2, PS)	339
TGGCAAGCATCCTGTA (sugars l2 d11 l3, PS)	365
GTTACTGCCTTCTTAC (sugars llldlddddddlldll, PS)	307
TGGCAAGCATCCTGTA (sugars ldldlddddddlllll, PS)	342
GTTACTGCCTTCT (sugars l1 d11 l1, PS)	112
TTACTGCCTTCTT (sugars l1 d1 l2 d8 l1, PS)	153
GTTACTGCCTTCTTAC (sugars llddldddddddlldl, PS)	330
GCAAGCATCCTGT (sugars lldlddddddldl, PS)	209
GTTACTGCCTTCTTAC (sugars l1 d10 l3 d1 l1, PS)	261
GTTACTGCCTTCTTAC (sugars l1 d12 l1 d1 l1, PS)	103
GTTACTGCCTTCTTAC (sugars l4 d9 l3, PS)	160
TACTGCCTTCTTA (sugars l2 d1 l1 d7 l2, PS)	295
GTTACTGCCTTCTTAC (sugars l5 d8 l1 d1 l1, PS)	457
GTTACTGCCTTCTTAC (sugars ldldlddddddldlll, PS)	231
TGGCAAGCATCCTGTA (sugars l1 d10 l1 d3 l1, PS)	199
